For the experiment, the system named is relapsed or refractory, rituximab-naive or -sensitive follicular B-cell NHL. The experiment can be described thus: Overall response rate (CR+CRu+PR), Vc-R vs rituximab study, by biomarker. The settings on record: Biomarker positive (PSMB1 P11A heterozygote and CD68 Low). Type of experiment: in vivo, human. The source says:
Non-Hodgkin lymphoma (NHL) encompasses several unique malignant lymphoid disease entities that vary in clinical behavior, morphologic appearance, immunologic, and molecular phenotype. […] A randomized, open-label, active-controlled, multicenter, multinational, prospective study to compare the efficacy and safety of the combination of bortezomib and rituximab (Vc-R) to single-agent rituximab in subjects who have relapsed or refractory, rituximab-naive or -sensitive follicular B-cell NHL was performed.
Subjects were centrally randomized to Treatment Groups A (Vc-R) or B (rituximab) in a 1:1 ratio taking into account the following stratification factors: • Follicular Lymphoma International Prognostic Index (FLIPI) score (low [0 or 1 factor], intermediate [2 factors], high [≧3 factors]); • Prior rituximab therapy (yes, no); • Time since last dose of anti-lymphoma therapy (≦1 year, >1 year); • Region (United States/Canada, European Union, Rest of World). […]
Comparison of the response rates between the treatment groups was conducted using the Fishers Exact Test. Duration of response, time to response, and time to clinical relapse were analyzed descriptively, where appropriate, and the biomarker subset was compared (if appropriate, determined as per the initial analysis) to the overall clinical cohort, by treatment group and overall. […]

In the case of rituximab, the overall response rate was determined as 47.5%.

The record behind these values is patent publication US9322066B2, “Predictors for cancer treatment” (priority 2011, dated 2016).
